Experiments:
Format in all cases: in vivo
zebrafish embryos [1] = assay: Zebrafish-embryo mixture toxicity, mixed chemical phenotype score and interaction; conditions: with DMSO, max 20 = normal
Procedure: (§1) First, the toxicity of single chemicals in zebrafish embryos is determined. Using the toxicity data of single chemicals as a baseline, we screened mixtures for altered activity and characterized the optimal concentration ratios of components. For chemical treatments, 1000× working stocks are prepared in DMSO. Dechorionated zebrafish embryos, […], are placed in 0.5 mL of fish water (0.3 g/L sea salt) in 24-well plates. The 1000× stock solution of chemicals is diluted to 2× in fish water with 2% DMSO added. Then, 0.5 mL of the 2× diluted chemical solution is added to the 0.5 mL of fish water containing the embryos to achieve a final concentration of 1× compound in 1% DMSO.
Figure 10 Mixed chemical phenotypes and how they are scored. The mixed chemical phenotype score is the sum of the scores for the five individual fish in a well. Two wells were treated per chemical combination, and the scores are averaged for the wells. Scoring was as follows: dead = 0; severely deformed = 1; deformed = 2; slightly deformed = 3; and normal phenotypes = 4.
We tested the top 300 chemical mixtures, as prioritized by AI-CPTM, which were randomly selected and readily purchasable, on zebrafish embryos. […] We then compared the toxicity predictions made by the machine-learning model with the results obtained from the zebrafish assays.
The EC50, indicating the median effective concentration for developmental toxicity, is determined using morphological criteria. Fish are identified by date and well number (Figure 10). In each well containing five fish, the mixed compound phenotype score is the sum of the scores for the individual fish. Two wells are treated per combination, and the scores are averaged across these wells (Supplementary Material S2). Scoring follows this scale: dead = 0; severely deformed = 1; deformed = 2; slightly deformed = 3; normal phenotypes = 4. […] The EC50 and lowest observable effect concentration (LOEC) for binary mixtures are determined by testing a linear concentration series of the first chemical against five concentrations of the second chemical, including a vehicle control.

zebrafish embryos [2] = assay: Dose-response zebrafish live assay, single chemicals (developmental toxicity); conditions: for concentration at which embryos were relatively normal / symptoms absent / lowest dose causing significant developmental abnormalities (toxic at): 2 dpf; for lethal concentration: 100% lethality / lethal by
Procedure: Dose-dependent toxicities in zebrafish embryos were assessed by the lowest dose that caused significant developmental abnormalities 2 days post-fertilization (2 dpf) in a dose-response live assay. […] Starting with Pyraclostrobin, it was identified as toxic at 30 nM. It induced developmental delays in the embryos without visible deformities. […] It appeared relatively normal at 5 µM. This twitching phenotype indicates specific neuronal toxicity. […] These symptoms were absent at lower concentrations (30 µM), highlighting a dosage-sensitive relationship.
as §1
Figure 9 Dose-dependent toxicity assessment of AI-CPTM predicted chemicals (Table 1, Table 2, Table 3 and Table 4) as the lowest dose leading to, what is defined here, as significant developmental abnormalities at 2 days post-fertilization (2 dpf) in a dose-response zebrafish live assay.
We assessed individual chemicals for developmental toxicity, indicating any disruption in embryonic development from 1 to 4 days post-fertilization (dpf). Embryos are exposed to chemicals in their bath water from 1 dpf to 4 dpf, without changing the water during exposure. Initially, chemicals are screened by testing them at a series of concentrations increasing by half-log steps. […] Each embryo is assigned a score reflecting the severity of observed phenotypes, with the average score representing the group. The EC50 for developmental toxicity is defined as a score of five on this teratogenicity scale (Figure 10 and Supplementary Material S2). Once the effective range is identified, the EC50 is determined by testing a linear series of concentrations spanning from non-toxic to toxic levels. For chemicals not toxic at 10 µM, tests are extended up to 200 µM, with those showing no effects at this level considered non-toxic.

zebrafish embryos [3] = assay: PFOS/PFOA zebrafish-embryo lethality (LD50), sub-lethal effects (EC50) and mixture survival assay; conditions: for LD50: embryos exposed at 2 dpf for 24 h at 33 °C, average of three experiments; for EC50: sub-lethal adverse effects, exposed at 2 dpf for 24 h at 33 °C
Description: The methodology for assessing the toxicity in zebrafish is detailed in our earlier publication. The data presented in Table 3 and Table 4 and Figure 12 show the acute and sub-lethal toxicity of PFOS and PFOA individually and in combination with zebrafish embryos. This initial study offered a comparative insight into their toxic profiles in terms of lethal (LD50) and effective (EC50) concentrations, which are important for measuring their toxic effects. […] These concentrations reflect the exposure of zebrafish embryos to PFOS and PFOA at 2 days post-fertilization (dpf) for one day at a temperature of 33 °C. […] These effects include severe developmental abnormalities, such as bent body axis, edema, cloudy tissue formation, and developmental delays, signaling significant toxicity even at lower concentrations.
We explored further the combined effects of PFOS and PFOA, as shown in Table 4 and Figure 12, to examine how varying concentrations of PFOS affect the LD50 of PFOA in a mixture. The LD50 is the dose at which 50% of the embryos are dead. […] A five dose-response curve for PFOA was tested against three fixed concentrations, 68 µM, 38 µM, and 22 µM of PFOS at 2 dpf for one day at 33 °C. […] Nonetheless, as each experiment is internally controlled, relative toxicity and mixture interactions are accurately detected.
PFOS requires a lower concentration to be lethal and affects development at much lower concentrations compared to PFOA. […] Five concentrations of PFOA were tested to generate the dose-response curves. […] Overall, these experiments support predictions of AI-CPTM toxicity and chemical interaction effects.

[4] = single chemical, tested up to 200 µM

Q: Which results are given for `CC(C)(C)[C@@H](O)[C@@H](Cc1ccc(Cl)cc1)n1cncn1` (racemic) [Paclobutrazol]?
A: phenotype score of single chemical (Average / Compound #1 / Compound #2 phenotype score) (zebrafish embryos [1]; 50 µM): 17.5; phenotype score of single chemical (Average / Compound #1 / Compound #2 phenotype score) (zebrafish embryos [1]; 100 µM): 20; concentration at which embryos were relatively normal / symptoms absent (zebrafish embryos [2]; single chemical): 30000 nM; lowest dose causing significant developmental abnormalities (toxic at) (zebrafish embryos [2]; [4]): 50 µM

Q: For `Oc1c(Br)cc(Br)cc1Br` [2,4,6-Tribromophenol], which “phenotype score of single chemical (Average / Compound #1 / Compound #2 phenotype score)” value (zebrafish embryos [1]; 2 µM) is on record?
A: 14

Q: What about the “phenotype score of single chemical (Average phenotype score)” value (zebrafish embryos [1]; 4 µM) of the same compound?
A: 0

Q: What about the “lowest dose causing significant developmental abnormalities (toxic at)” value (zebrafish embryos [2]; [4]) of the same compound?
A: 2 µM

Q: What about the lethal concentration (zebrafish embryos [2]; single chemical) of the same compound?
A: 10 µM

Q: With `CC1(C)C(C=C(Cl)Cl)C1C(=O)OC(C#N)c1ccc(F)c(Oc2ccccc2)c1` (stereo not drawn) [Baythroid] as the compound, how does the “effect on embryo development (Figure 11)” value (zebrafish embryos [2]; at 200 µm) read?
A: pronounced deformities

Q: And the “lowest dose causing significant developmental abnormalities (toxic at)” value (zebrafish embryos [2]; [4])?
A: 20 µM

Q: How did the “effect on embryo development (Figure 11)” value (zebrafish embryos [2]; at 200 µm) turn out when `CCCCC(CC)COC(=O)c1ccccc1C(=O)OCC(CC)CCCC` (stereo not drawn) [Bis-(2-Ethylhexyl) Phthalate] was run?
A: pronounced deformities

Q: And the “lowest dose causing significant developmental abnormalities (toxic at)” value (zebrafish embryos [2]; [4])?
A: > 200 µM

Q: `CCCCOCN(C(=O)CCl)c1c(CC)cccc1CC` [Butachlor] was tested. Which “phenotype score of single chemical (Average / Compound #1 / Compound #2 phenotype score)” value (zebrafish embryos [1]; 100 µM) did it give?
A: 16

Q: What about the “phenotype score of single chemical (Average phenotype score)” value (zebrafish embryos [1]; 200 µM) of the same compound?
A: 0

Q: And the “effect on embryo development (Figure 11)” value (zebrafish embryos [2]; at 200 µm)?
A: pronounced deformities

Q: And the “concentration at which embryos were relatively normal / symptoms absent” value (zebrafish embryos [2]; single chemical)?
A: 100000 nM

Q: What about the “lowest dose causing significant developmental abnormalities (toxic at)” value (zebrafish embryos [2]; [4]) of the same compound?
A: 200 µM

Q: `O=C(OC1CCCCC1)c1ccccc1C(=O)OC1CCCCC1` [Dicyclohexyl Phthalate, Dicyclohexyl Phthalate (DCHP)] was tested. Which “phenotype score of single chemical (Average / Compound #1 / Compound #2 phenotype score)” value (zebrafish embryos [1]; 100 µM) did it give?
A: 20

Q: What about the “phenotype score of single chemical (Average phenotype score)” value (zebrafish embryos [1]; 200 µM) of the same compound?
A: 20

Q: And the “effect on embryo development (Figure 11)” value (zebrafish embryos [2]; at 200 µm)?
A: marked malformations and growth retardation

Q: And the “lowest dose causing significant developmental abnormalities (toxic at)” value (zebrafish embryos [2]; [4])?
A: 200 µM

Q: `CC1(C)C(C(=O)OC(C#N)c2cccc(Oc3ccccc3)c2)C1(C)C` (stereo not drawn) [Fenpropathrin] was tested. Which “phenotype score of single chemical (Average / Compound #1 / Compound #2 phenotype score)” value (zebrafish embryos [1]; 5 µM) did it give?
A: 10

Q: What about the “phenotype score of single chemical (Average phenotype score)” value (zebrafish embryos [1]; 10 µM) of the same compound?
A: 0

Q: And the “concentration at which embryos were relatively normal / symptoms absent” value (zebrafish embryos [2]; single chemical)?
A: 5000 nM

Q: What about the “lowest dose causing significant developmental abnormalities (toxic at)” value (zebrafish embryos [2]; [4]) of the same compound?
A: 10 µM

Q: Which results are given for `COCc1cnc(C2=NC(C)(C(C)C)C(=O)N2)c(C(=O)O)c1` (stereo not drawn) [Imazamox]?
A: effect on embryo development (Figure 11) (zebrafish embryos [2]; at 200 µm): marked malformations and growth retardation; lowest dose causing significant developmental abnormalities (toxic at) (zebrafish embryos [2]; [4]): > 200 µM

Q: Which results are given for `CC(CNCc1ccccc1O)NCc1ccccc1O` (stereo not drawn) [Motor fuel oil, Alpha, alpha’-(1-methylethylenediimino)di-ortho-cresol]?
A: phenotype score of single chemical (Average / Compound #1 / Compound #2 phenotype score) (zebrafish embryos [1]; 2.5 µM): 16; phenotype score of single chemical (Average / Compound #1 / Compound #2 phenotype score) (zebrafish embryos [1]; 5 µM): 6; concentration at which embryos were relatively normal / symptoms absent (zebrafish embryos [2]; single chemical): 1000 nM; lowest dose causing significant developmental abnormalities (toxic at) (zebrafish embryos [2]; [4]): 5 µM; lethal concentration (zebrafish embryos [2]; single chemical): 10 µM

Q: With `O=C(O)C(F)(F)C(F)(F)C(F)(F)C(F)(F)C(F)(F)C(F)(F)C(F)(F)F` [PFOA, Perfluorooctanoic acid (PFOA)] as the compound, how does the LD50 (zebrafish embryos [3]) read?
A: 187.5 µM

Q: What about the EC50 (zebrafish embryos [3]) of the same compound?
A: 29.5 µM

Q: Which survival (zebrafish embryos [3]; 68 μM PFOS, 0 μM PFOA) does the source give for `O=S(=O)(O)C(F)(F)C(F)(F)C(F)(F)C(F)(F)C(F)(F)C(F)(F)C(F)(F)C(F)(F)F` [PFOS, Perfluorooctane sulfonic acid (PFOS)] here?
A: 100%

Q: What about the LD50 (zebrafish embryos [3]) of the same compound?
A: 53 µM

Q: And the EC50 (zebrafish embryos [3])?
A: 11 µM

Q: For `COc1cnc(OC)n2nc(NS(=O)(=O)c3c(OCC(F)F)cccc3C(F)(F)F)nc12` [Penoxsulam], which “effect on embryo development (Figure 11)” value (zebrafish embryos [2]; at 200 µm) is on record?
A: moderate deformities

Q: And the “lowest dose causing significant developmental abnormalities (toxic at)” value (zebrafish embryos [2]; [4])?
A: > 200 µM

Q: With `COC(=O)N(OC)c1ccccc1COc1ccn(-c2ccc(Cl)cc2)n1` [Pyraclostrobin] as the compound, how does the “phenotype score of single chemical (Average / Compound #1 / Compound #2 phenotype score)” value (zebrafish embryos [1]; 0.01 µM) read?
A: 20

Q: And the “phenotype score of single chemical (Average phenotype score)” value (zebrafish embryos [1]; 0.02 µM)?
A: 20

Q: And the “effect on embryo development (Figure 11)” value (zebrafish embryos [2]; at 30 nm)?
A: minimal effects

Q: What about the “effect on embryo development (Figure 11)” value (zebrafish embryos [2]; at 200 µm) of the same compound?
A: significant embryonic damage

Q: What about the “concentration resulting in embryo lysis” value (zebrafish embryos [2]; single chemical) of the same compound?
A: 100 nM

Q: What about the “lowest dose causing significant developmental abnormalities (toxic at)” value (zebrafish embryos [2]; single chemical) of the same compound?
A: 0.03 µM

Q: How did the “phenotype score of single chemical (Average / Compound #1 / Compound #2 phenotype score)” value (zebrafish embryos [1]; 0.05 µM) turn out when `CC(C)(C)c1ccc(CSc2cnn(C(C)(C)C)c(=O)c2Cl)cc1` [Pyridaben] was run?
A: 20

Q: And the “phenotype score of single chemical (Average phenotype score)” value (zebrafish embryos [1]; 0.1 µM)?
A: 18.5

Q: What about the “effect on embryo development (Figure 11)” value (zebrafish embryos [2]; at 50 nm) of the same compound?
A: noticeable developmental delays and morphological abnormalities

Q: What about the “concentration causing developmental stalling at the 8-somite stage” value (zebrafish embryos [2]; single chemical) of the same compound?
A: 100 nM

Q: And the “lowest dose causing significant developmental abnormalities (toxic at)” value (zebrafish embryos [2]; single chemical)?
A: 0.05 µM

Q: How did the “effect on embryo development (Figure 11)” value (zebrafish embryos [2]; at 200 µm) turn out when `CC/C(=N\OC/C=C/Cl)C1=C(O)CC(C2CCOCC2)CC1=O` (stereo not drawn) [Tepraloxydim] was run?
A: moderate deformities

Q: And the “lowest dose causing significant developmental abnormalities (toxic at)” value (zebrafish embryos [2]; [4])?
A: > 200 µM

Q: For `CC(C)=CC1C(C(=O)OCN2C(=O)C3=C(CCCC3)C2=O)C1(C)C` (stereo not drawn) [Tetramethrin], which “phenotype score of single chemical (Average / Compound #1 / Compound #2 phenotype score)” value (zebrafish embryos [1]; 5 µM) is on record?
A: 20

Q: What about the “phenotype score of single chemical (Average phenotype score)” value (zebrafish embryos [1]; 10 µM) of the same compound?
A: 15

Q: And the “effect on embryo development (Figure 11)” value (zebrafish embryos [2]; at 200 µm)?
A: pronounced deformities

Q: And the “lowest dose causing significant developmental abnormalities (toxic at)” value (zebrafish embryos [2]; [4])?
A: 5 µM

Q: Which “lowest dose causing significant developmental abnormalities (toxic at)” value (zebrafish embryos [2]; [4]) does the source give for `COc1nc(C)nc(NC(=O)NS(=O)(=O)c2ccccc2OCCCl)n1` [Triasulfuron] here?
A: > 200 µM

Source: publication PMC11281031, “A Machine-Learning-Driven Pathophysiology-Based New Approach Method for the Dose-Dependent Assessment of Hazardous Chemical Mixtures and Experimental Validations” (Toxics, 2024)
